Patent US20220380829A1, “Method of Diagonosizing Pathogens and their Antimicrobial Susceptibility” (HANGZHOU DIAN MEDICAL LABORATORY CO., LTD., priority 2019, published 2022)

System: Candida tropicalis
Assay: Broth microdilution (M27-A3, M27-S4), gold standard culture-based AST
Format: cell-based

## OC(Cn1cncn1)(Cn1cncn1)c1ccc(F)cc1F [FLU]
blind-1
  Resistance profiles by broth microdilution (the gold standard): R
blind-2
  Resistance profiles by broth microdilution (the gold standard): S
blind-3
  Resistance profiles by broth microdilution (the gold standard): R
blind-4
  Resistance profiles by broth microdilution (the gold standard): R
blind-5
  Resistance profiles by broth microdilution (the gold standard): S
blind-6
  Resistance profiles by broth microdilution (the gold standard): S
